Assay results: PubChem BioAssay AID423 (Public Access to Neuroactive & Anticonvulsant Chemical …, 2006)
Activity calls are given as the source filed them.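 Rule for the calls: active = any mouse or rat spared a seizure in electric shock or chemically induced seizure tests, at any tested dose or timing; inactive = no animal spared a seizure in any test.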

System: mouse/rat MES, scMET, 6Hz seizure protection, qualitative
Experiment: anticonvulsant seizure protection in rodents, summary, in vivo study, qualitative, MES, scMET, 6Hz, i.p. and oral (AID 423)

SMILES	outcome
CCN(CC)CC(=O)Nc1c(C)cccc1C	active
CC(C)[N+](C)(CCOC(=O)C1c2ccccc2Oc2ccccc21)C(C)C	active; inactive
CCC1(C)CC(=O)NC1=O (stereo not given)	active; inactive
O=C1CC2OCC=C3CN4CCC56c7ccccc7N1C5C2C3CC46 (stereo not given)	active; inactive
NC(=O)N1c2ccccc2C=Cc2ccccc21	active
O=C1CN=C(c2ccccc2Cl)c2cc([N+](=O)[O-])ccc2N1	active
COC(=O)Nc1nc2ccc(C(=O)c3ccccc3)cc2[nH]1	active; inactive
CCCCC1C(=O)N(c2ccccc2)N(c2ccccc2)C1=O	active; inactive
CC(=O)OCC[N+](C)(C)C	active; inactive
CCC1(c2ccccc2)C(=O)NC(=O)NC1=O	active
